Data: US20210145951A1, “COMPOSITIONS AND METHODS FOR SHARED NEO-EPITOPE VACCINES” (Epivax Oncology, Inc., priority 2019, published 2021)

Columns and labels:
[1] = test system: CT26 murine colon tumor cells; experiment: CT26 tumor growth with or without poly-ICLC (Example 13); format: in vivo, BALB/c mice; conditions: day 25 post-tumor implantation, relative to PBS or poly-ICLC alone
Procedure: The goal of this experiment was to determine the requirement for the inclusion of the adjuvant poly-ICLC in a peptide vaccine containing ANCER™ selected neoantigens. For this experiment, female BALB/c mice were implanted subcutaneously with 3×10^5 CT26 murine colon tumor cells. Tumor growth was monitored by caliper measurement and mice were sacrificed 45 days after tumor implantation or when tumor volumes reached 2000 mm^3, whichever came first.
Four vaccine groups were tested (n=10 mice/group):
Peptide vaccines were comprised of 20 different ANCER™ selected peptides at a concentration of 5 μg/peptide for a total dose of 100 μg peptide per immunization. Mice were immunized subcutaneously in the opposite flank from tumor implantation twice per week for three weeks, starting at day 4 post-tumor implantation.

CT26 tumor cells = experiment: CT26 tumor growth and survival after vaccination (Example 1); format: in vivo; conditions: CT26 in Balb/c mice

poly-ICLC
control of tumor growth [1]: no difference in tumor growth kinetics
mice reaching a tumor volume of at least 2,000 mm^3 (endpoint) by day 28 (CT26 tumor cells; N=10): 60%
mice that survived past day 28 (CT26 tumor cells; N=10): Less than 50%
mice that survived the 45 days of the experiment (CT26 tumor cells; N=10, in words): None
tumor burden compared to Group 1 (PBS) (CT26 tumor cells; sc injections days 5-26): no reduction in tumor burden
